Assay results: patent US11771661B2, “Method of treating post-traumatic stress disorder” (ICAHN SCHOOL OF MEDICINE AT MOUNT SINAI, priority 2013, dated 2023)
Values joined by “and” are separate entries in the source; they are usually repeats but may differ in a detail not shown here. Identical values can stand only once.

Experiments:
NMDA receptors = details: read-out: Ki, binding to NMDA receptors; cited from earlier work
[1] = system: intractable central neuropathic pain; details: in vivo; cited from earlier work
[2] = Side effects of IV administration of ketamine; format: in vivo, human
Procedure: IV administration of ketamine can be on an as needed basis, e.g., when symptoms of PTSD appear. For IV administration, ketamine (e.g., doses of at least 0.5 mg/kg) may be administered over a period of 40 minutes. IV administration may be continued for up to 1 week, or longer. IV administration of ketamine may also be effected at least twice, at least three times, at least four times, at least five time, at least six times, at least seven times per week, and may be continued over a period of two, three, four, five, six, seven, eight, nine or 10 weeks, or more. […] Any side effects observed are typically mild, e.g., euphoria, elevated BP, increased libido, perceptual disturbances, and furthermore these effects typically abate within 80 minutes post-infusion.

[3] = system: patients with treatment resistant depression (TRD), co-morbid current PTSD; assay: Example 1: open-label ketamine infusion in treatment resistant depression patients, case studies with co-morbid PTSD; format: in vivo, human; details: for IES score: baseline 48
Procedure: In a ketamine infusion study in patients with treatment resistant depression (TRD), ketamine (0.5 mg/kg IV) was administered open-label and combined with pre-infusion treatment with a single oral dose of lamotrigine (300 mg) or placebo administered under double-blind conditions. Preliminary analyses were recently performed on a sample of 16 patients. […] A strong positive correlation between individual childhood trauma (abuse and/or neglect) and the antidepressant response (MADRS: r=0.55, p=0.03; QIDS-SR: r=0.59, p=0.02).
The effect of ketamine on Hamilton Anxiety Rating Scale (HAM-A) scores was also measured. A strong positive correlation between the magnitude of the ketamine-induced reduction in HAM-A scores and personal history of childhood trauma measured using the Childhood Trauma Questionnaire (CTQ; n=15, r=0.59, p=0.02) was observed. […] Patient A, suffered from distressing intrusive memories, nightmares, flashbacks, hypervigilance, poor concentration, and depressed mood. Patient A described their PTSD and MDD symptoms as chronic, but having intensified over time, due to ongoing events in their life.
After observing the magnitude of the therapeutic effect of ketamine in Patient A, TRD patients with a co-morbid current PTSD diagnosis were administered the Clinician-Administered PTSD Scale (CAPS) and the Impact of Events Scale (IES) before and after ketamine infusion. […] The day after ketamine infusion, Patient M reported that they felt an “intellectual distance” from the emotional content of prior traumatic events that allowed them to feel more in control. Patient M further described feeling relieved of a compulsion to continuously analyze their past, identify ways in which they might have circumvented trauma, and subsequently punish themself for their failure to avoid trauma. One week post-infusion, Patient M's CAPS score had dropped by 90% and could be considered a remission (defined as CAPS<20). Two weeks post-infusion, Patient M maintained their “intellectual distance” from the emotional content associated with their trauma.

[4] = system: patients with chronic PTSD; assay: Example 2: randomized, double-blind, midazolam-controlled crossover trial of IV ketamine, symptom ratings; format: in vivo, human; details: for decrease in CAPS score: at 7 days, single infusion study; for CAPS Total (Week 1), mean / CAPS Total (Week 2), mean / CGI-I (Week 1), mean / CGI-I (Week 2), mean / IES-R Total (Week 1), mean / IES-R Total (Week 2), mean: by treatment group (drug given first); for CAPS Total (Week 1) / CAPS Total (Week 2) / CGI-I (Week 1) / CGI-I (Week 2) / IES-R Total (Day 10) / IES-R Total (Week 1) / IES-R Total (Week 2): individual responder patients, after first infusion; for IES-R_response No, Percent of total / IES-R_response Yes, Percent of total: of all 35 patients; for IES-R_response No, Frequency / IES-R_response Yes, Frequency: response = 50% improvement in IES-R score at 24 hours post-infusion; for IES-R_response No, Row Pct: share of non-responders; for IES-R_response Yes, Row Pct: share of responders; for IES-R_response No, Col Pct / IES-R_response Yes, Col Pct (responded after infusion): share of the treatment group; for IES-R_response Yes, Col Pct (responded after infusion): 24 hours post-infusion
Description: Patients with chronic PTSD were enrolled in a controlled study. […] Exclusion criteria included lifetime history of psychotic or bipolar disorder, current bulimia or anorexia nervosa, alcohol abuse or dependence in the previous three months, serious unstable medical illness or sleep apnea, active suicidal or homicidal ideation on presentation, or current use of any psychotropic medications. All patients underwent a physical examination and laboratory screening including routine hematologic, biochemical and urine toxicology testing, as well as an electrocardiogram to rule out unstable medical illness and active substance use. To receive the second IV infusion, a CAPS score of at least 50 was required prior to the second infusion. The Institutional Review Board at Mount Sinai approved the study, and informed consent was obtained from all study participants.
Study participants were free of concomitant psychotropic medications for two weeks prior to randomization and for the duration of the study. For each procedure day, patients were assigned to receive a single IV infusion of ketamine hydrochloride (0.5 mg/kg) or midazolam (0.045 mg/kg), administered over 40 minutes. Order of infusions (ketamine-midazolam or midazolam-ketamine) was randomly assigned and administrations were two weeks apart. […] Only the research pharmacy was aware of drug identity, and all study personnel, including investigators, anesthesiologists, raters, patients and data analysts were blinded to randomization order.
Following admission and an overnight fast, an indwelling catheter was placed in the antecubital vein of the non-dominant arm. Pulse, blood pressure, pulse-oximetry and ECG monitoring were instituted (see Murrough J et al. Antidepressant efficacy of ketamine in treatment-resistant major depression: a two-site, randomized controlled trial. The American Journal of Psychiatry. 2013 Oct. 1; 170(10):1134-42). Ratings were administered by a trained rater during the infusion and at 240 minutes after the start of the infusion. A different rater, blinded to the ratings during post-infusion on infusion, administered ratings at pre-infusion baseline, 24 hours (Day 1) post-infusion (before patients were discharged from the hospital), 48 hours (Day 2), 72 hours (Day 3), and 7 days (Day 7) post-infusion. Ratings were also administered at 10 and 13 days post-infusion, though data analyses focused on the first week post-infusion due to the expected duration of ketamine action. Patients were instructed to abstain from taking psychotropic medications and from using alcohol or substances of abuse for the duration of the trial. As described above, patients who scored ≥50 on the CAPS 2 weeks after the first infusion received an infusion of the second study drug.
The primary outcome was PTSD symptom severity at 24 hours post-infusion, assessed with the Impact of Event Scale—Revised (IES-R). Twenty-four hours post-infusion was selected as the primary endpoint, as acute sedating and other side effects were expected to have resolved, while potential symptom improvement was expected to persist at 24 hours. Secondary outcome measures included the Montgomery-Asberg Depression Rating Scale (MADRS), the Quick Inventory of Depressive Symptomatology, Self-Report (QIDS-SR), and Clinical Global Impression-Severity (CGI-S) and -Improvement (GCI-I) scales administered by a study clinician at 24 hours, 48 hours, 72 hours and 7 days post-infusion. The IES-R was also administered at 48 hours, 72 hours, and 7 days post-infusion. Additionally, the CAPS was administered 7 days post-infusion.
A mixed-model approach was employed to test effects of treatment, period, and carryover.

[5] = system: patients with chronic PTSD; assay: Example 2: side effects (PRISE, CADSS, BPRS, YMRS item 1) after IV infusion; format: in vivo, human
Procedure: General side effects and possible dissociative, psychotomimetic, and manic symptoms were measured with the Patient-Rated Inventory of Side Effects (PRISE), Clinician-Administered Dissociative States Scale (CADSS), Brief Psychiatric Rating Scale (BPRS) and Young Mania Rating Scale (YMRS) item 1 (elevated mood), respectively.
Secondary analyses also examined the effect of depression on PTSD symptoms and the interaction between treatment and depression. A mixed model approach was used to examine the effects of treatment, baseline MADRS score, and 24-hour MADRS score using only first-period data. Safety and tolerability were analyzed using descriptive statistics.

[6] = system: treatment-resistant major depression; details: 0.5 mg/kg intravenous infusion over 40 minutes; cited from earlier work
[7] = IN vs IV; cited from earlier work
breakthrough pain (BTP) = details: cited from earlier work
[8] = cited from earlier work
[9] = 0.5 mg/kg IV open-label, 16 TRD patients
[10] = ketamine vs midazolam, cross-over 24 hours, n = 29
[11] = ketamine vs midazolam, first infusion 24 hours, n = 41

## CN[C@@]1(c2ccccc2Cl)CCCCC1=O [R(−)]
NMDA receptors
  Ki: 1100 nM

## CN[C@]1(c2ccccc2Cl)CCCCC1=O [S(+)-ketamine]
NMDA receptors
  Ki: 3200 nM
[1]
  potency compared with racemic mixture of ketamine: two times more potent

## CNC1(c2ccccc2Cl)CCCCC1=O (centres unmarked) [ketamine, 2-(2-chlorophenyl)-2-(methylamino)-cyclohexanone]
[2]
  serious adverse events caused by IV administration: No serious adverse events
  time by which mild side effects typically abate post-infusion: ≤ 80 min
[3]; [9]
  MADRS clinical depression scores, baseline to 24 hours post-infusion: reduced clinical depression scores
  self-reported mood, QIDS-SR: improved
[3]; Patient M, +1 week
  IES score: 5
[3]; Patient M, +1 week, baseline 81
  CAPS score: 8
[3]; Patient M, +2 weeks
  IES score: 15
[3]; Patient M, +2 weeks, baseline 81
  CAPS score: 27
[3]; Patient M, +40 min post-ketamine
  IES score: 33
[3]; Patient M, +240 min
  IES score: 3
[3]; Patient M, +24 hours
  IES score: 16
[3]; Patient M, +72 hours
  IES score: 5
[3]; Patient M, one week post-infusion, baseline 81
  drop in CAPS score: 90%
[4]; 7 days post-infusion, p-value=0.20
  CAPS score, mean difference ketamine-midazolam: 8.7
[4]
  decrease in CAPS score: 27 (sd=20)
  CAPS Total (Week 1), mean: 54.00
  CAPS Total (Week 2), mean: 56.21
  CGI-I (Week 1), mean: 3.22
  CGI-I (Week 2), mean: 3.15
  IES-R Total (Week 1), mean: 25.76
  IES-R Total (Week 2), mean: 25.67
  CAPS Total (Week 1): 16 and 45 and 41 and 33 and 54 and 22 and 13
  CAPS Total (Week 2): 11 (2×) and 25 and 28 and 19 and 44 and 45
  CGI-I (Week 1): 2 (5×) and 3
  CGI-I (Week 2): 2 (3×) and 3
  IES-R Total (Day 10): 4 and 3 (3×) and 15 and 25.14 and 28
  IES-R Total (Week 1): 1 and 8.38 and 10 and 2 and 18 and 17 and 3
  IES-R Total (Week 2): 6 and 1 and 14 and 0 and 26 and 28 and 2
  IES-R_response No, Percent of total: 25.71%
  IES-R_response Yes, Percent of total: 28.57%
  IES-R_response No, Frequency: 9
  IES-R_response Yes, Frequency: 10
  IES-R_response No, Row Pct: 45.00 Pct
  IES-R_response Yes, Row Pct: 66.67 Pct
  IES-R_response No, Col Pct: 47.37 Pct
  IES-R_response Yes, Col Pct (responded after infusion): 52.63%
[4]; ketamine vs midazolam, collapsed across 24, 48, 72 hours and seven days, first period, p=0.046
  IES-R, differences of least squares means estimate: −8.32
[4]; ketamine vs midazolam, collapsed across time, first period, p=0.050
  QIDS-SR, differences of least squares means estimate: −2.73
[4]; ketamine vs midazolam, collapsed across time, first period, p=0.052
  MADRS, differences of least squares means estimate: −3.99
[4]; [10]
  CGI-I, mean difference: 1.2
  CGI-S, mean difference: 1.0
  IES-R Avoidance, mean difference: 4.8
  IES-R Hyperarousal, mean difference: 3.9
  IES-R Re-experiencing, mean difference: 4.0
  IES-R total, mean difference: 12.7
  MADRS, mean difference: 3.7
  QIDS, mean difference: 0.17
[4]; [11]
  CGI-I, mean difference: 0.80
  CGI-S, mean difference: 0.90
  IES-R Avoidance, mean difference: 3.3
  IES-R Hyperarousal, mean difference: 2.6
  IES-R Re-experiencing, mean difference: 2.6
  IES-R total, mean difference: 8.6
  MADRS, mean difference: 2.7
  QIDS, mean difference: 1.5
[4]; period-1 analysis, 41 patients, ketamine vs midazolam, p=0.0496
  β of treatment assignment on IES-R score at 24 hours post-infusion: 6.5
[5]; BPRS, YMRS item 1
  psychotic or manic symptoms: No emergence of significant psychotic or manic symptoms
[5]; during infusion, systolic >180 and/or diastolic >100
  patients requiring acute beta-blocker treatment for blood pressure elevation: Three
[5]; from start of infusion
  time by which dissociative symptoms had resolved: ≤ 120 min
  time of peak of dissociative symptoms: 40 min
[5]; single dose IV
  safety and tolerability: safe and well-tolerated
[6]
  duration of improvements in depression: up to 1 week
  serious adverse events: no serious adverse events
  time to improvements in depression post-injection: ≤ 2 h
[7]
  intranasal plasma levels (pain treatment) lower than intravenous ketamine studies in depression: 3-4 fold
Breakthrough pain (BTP); 10-50 mg intranasal in incremental 10 mg doses every 90 seconds
  breakthrough pain vs placebo: lower BTP
Breakthrough pain (BTP); 10-50 mg intranasal
  side effects: very few side effects
[8]; in vivo
  dose at which mild adverse effects (dysphoria, hallucinations) can occur: greater than 50 mg
[8]; intranasal
  total intranasal dose usually required for mild adverse effects: greater than 100 mg

## Cc1ncc2n1-c1ccc(Cl)cc1C(c1ccccc1F)=NC2 [midazolam]
[4]; at 2 weeks, CAPS score <50, drug given first
  number of patients whose symptoms remained significantly improved: one
[4]
  decrease in CAPS score: 13 (sd=18)
  CAPS Total (Week 1), mean: 65.69
  CAPS Total (Week 2), mean: 70.81
  CGI-I (Week 1), mean: 3.80
  CGI-I (Week 2), mean: 3.91
  IES-R Total (Week 1), mean: 36.32
  IES-R Total (Week 2), mean: 32.51
  CAPS Total (Week 1): 50
  CAPS Total (Week 2): 30
  CGI-I (Week 1): 4
  CGI-I (Week 2): 4
  IES-R Total (Day 10): 6
  IES-R Total (Week 1): 12.57
  IES-R Total (Week 2): 5
  IES-R_response No, Percent of total: 31.43%
  IES-R_response Yes, Percent of total: 14.29%
  IES-R_response No, Frequency: 11
  IES-R_response Yes, Frequency: 5
  IES-R_response No, Row Pct: 55.00 Pct
  IES-R_response Yes, Row Pct: 33.33 Pct
  IES-R_response No, Col Pct: 68.75 Pct
  IES-R_response Yes, Col Pct (responded after infusion): 31.25%
